Here are results for eleven compounds from patent US8431565B2 (priority 2007, dated 2013).

The target in the first assay is human CB1 receptor (hCB1) (Homo sapiens, UniProt P21554). The class given is cell-based.
Sequence of human CB1 receptor (hCB1) (P21554 whole entry): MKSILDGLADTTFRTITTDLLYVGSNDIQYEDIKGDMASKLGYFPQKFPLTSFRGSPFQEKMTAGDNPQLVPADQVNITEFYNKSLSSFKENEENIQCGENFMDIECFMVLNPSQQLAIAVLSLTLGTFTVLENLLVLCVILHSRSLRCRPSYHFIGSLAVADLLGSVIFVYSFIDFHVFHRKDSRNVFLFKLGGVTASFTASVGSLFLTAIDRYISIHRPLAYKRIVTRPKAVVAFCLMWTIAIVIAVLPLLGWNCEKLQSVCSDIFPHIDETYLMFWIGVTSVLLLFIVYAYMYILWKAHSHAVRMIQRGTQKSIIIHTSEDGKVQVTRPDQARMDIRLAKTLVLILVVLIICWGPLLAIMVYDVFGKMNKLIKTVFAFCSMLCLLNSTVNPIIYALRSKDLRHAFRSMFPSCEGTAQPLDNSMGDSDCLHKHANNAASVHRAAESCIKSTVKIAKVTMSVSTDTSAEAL
The term EC50 denotes the concentration needed to bring the measured effect to its halfway point. Higher therefore signals a less potent agent. Take `CC(=O)NC[C@@H](NC(=O)c1nc(-c2cc(Cl)ccc2F)n2c1CN(C)CCC2)C(C)(C)C` [Compound 770, (S)-N-(1-acetamido-3,3-dimethylbutan-2-yl)-3-(5-chloro-2-fluorophenyl)-8-methyl-6,7,8,9-tetrahydro-5H-imidazo[1,5-a][1,4]diazepine-1-carboxamide]: the concentration for a half-maximal effect (EC50) was above 10000 nM. `CN1CCCn2c(-c3cc(F)c(F)cc3F)nc(C(=O)N3CCC4(CCNC4=O)CC3)c2C1` [Compound 787, 8-(8-methyl-3-(2,4,5-trifluorophenyl)-6,7,8,9-tetrahydro-5H-imidazo[1,5-a][1,4]diazepine-1-carbonyl)-2,8-diazaspiro[4.5]decan-1-one]: the 50% effective concentration (EC50) was above 10000 nM. As to `CNC(=O)C1(NC(=O)c2nc(-c3cc(F)c(F)cc3F)n3c2CN(C)CCC3)CCCC1` [Compound 719, 8-methyl-N-(1-(methylcarbamoyl)cyclopentyl)-3-(2,4,5-trifluorophenyl)-6,7,8,9-tetrahydro-5H-imidazo[1,5-a][1,4]diazepine-1-carboxamide], the EC50 is above 10000 nM.

A further assay deals with T1, rat CB2 receptor (rCB2) (Rattus norvegicus, UniProt Q9QZN9).
T1 sequence (Q9QZN9 1-360): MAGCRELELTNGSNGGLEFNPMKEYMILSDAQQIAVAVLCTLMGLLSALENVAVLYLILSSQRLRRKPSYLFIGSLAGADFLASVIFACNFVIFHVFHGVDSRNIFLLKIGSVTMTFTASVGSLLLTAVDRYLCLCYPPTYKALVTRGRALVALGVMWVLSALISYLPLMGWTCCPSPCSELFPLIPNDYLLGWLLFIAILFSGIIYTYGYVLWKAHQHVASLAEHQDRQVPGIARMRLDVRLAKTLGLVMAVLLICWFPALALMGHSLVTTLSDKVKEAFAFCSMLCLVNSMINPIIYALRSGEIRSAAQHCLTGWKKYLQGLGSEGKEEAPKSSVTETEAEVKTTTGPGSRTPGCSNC
For the compound `CC(C)CN1CCn2c(-c3ccccc3)nc(C(=O)NN3CCCCC3)c2C1` [Compound 155, 7-isobutyl-3-phenyl-N-(piperidin-1-yl)-5,6,7,8-tetrahydroimidazo[1,5-a]pyrazine-1-carboxamide], the EC50 lay within 0.1 to 10 nM. As for `CNC(=O)[C@@H](NC(=O)c1nc(-c2cc(Cl)ccc2F)n2c1CN(C)CC2)C(C)(C)C` [Compound 246, (S)-3-(5-chloro-2-fluorophenyl)-N-(3,3-dimethyl-1-(methylamino)-1-oxobutan-2-yl)-7-methyl-5,6,7,8-tetrahydroimidazo[1,5-a]pyrazine-1-carboxamide], the EC50 fell in the range of 10 to 100 nM. The same measure, in the same setting: for `CC(C)(C)[C@@H](CO)NC(=O)c1nc(-c2ccccc2)n2c1CN(CC1CC1)CC2` [Compound 84, (S)-7-(cyclopropylmethyl)-N-(1-hydroxy-3,3-dimethylbutan-2-yl)-3-phenyl-5,6,7,8-tetrahydroimidazo[1,5-a]pyrazine-1-carboxamide] the value was 10 to 100 nM; for `CNC(=O)[C@@H](NC(=O)c1nc(-c2ccccc2)n2c1CN(S(=O)(=O)C(C)C)CC2)C(C)(C)C` [Compound 94, (S)-N-(3,3-dimethyl-1-(methylamino)-1-oxobutan-2-yl)-7-(isopropylsulfonyl)-3-phenyl-5,6,7,8-tetrahydrimidazo[1,5-a]pyrazine-1-carboxamide], 10 to 100 nM; for `CNC(=O)[C@@H](NC(=O)c1nc(/C=C/Cc2ccccc2)n2c1CN(C)CCC2)C(C)(C)C` [Compound 458, (S,E)-N-(3,3-dimethyl-1-(methylamino)-1-oxobutan-2-yl)-8-methyl-3-(3-phenylprop-1-enyl)-6,7,8,9-tetrahydro-5H-imidazo[1,5-a][1,4]diazepine-1-carboxamide], 10 to 100 nM.

For the compound `COC(=O)N1CCn2c(-c3ccccc3)nc(C(=O)NC3C4(C)CCC(C4)C3(C)C)c2C1` (centres unmarked) [Compound 178, methyl 3-phenyl-1-(1,3,3-trimethylbicyclo[2.2.1]heptan-2-ylcarbamoyl)-5,6-dihydroimidazo[1,5-a]pyrazine-7(8H)-carboxylate], the EC50 is 10 to 100 nM.

In the case of `CNC(=O)[C@@H](NC(=O)c1nc(-c2ccccc2)n2c1CN(c1cncc(Cl)n1)CC2)C(C)(C)C` [Compound 300, (S)-7-(6-chloropyrazin-2-yl)-N-(3,3-dimethyl-1-(methylamino)-1-oxobutan-2-yl)-3-phenyl-5,6,7,8-tetrahydroimidazo[1,5-a]pyrazine-1-carboxamide], the half-maximal effective concentration (EC50) lay in the range of 10 to 100 nM.

As to `CNC(=O)[C@@H](NC(=O)c1nc(-c2cccc(C(F)(F)F)c2)n2c1CNCC2)C(C)(C)C` [Compound 3, (S)-N-(3,3-dimethyl-1-(methylamino)-1-oxobutan-2-yl)-3-(3-(trifluoromethyl)phenyl)-5,6,7,8-tetrahydroimidazo[1,5-a]pyrazin-1-carboxamide], the EC50 lay within 10 to 100 nM.
